The values that follow come from patent publication US20250144105A1, “CDK9 INHIBITORS” (Origenis GmbH, priority 2022, published 2025).

For orientation: IC50 means the concentration that inhibits the measured activity by half. Read a high IC50 as a need for much substance.

The experiment deals with T1, CDK9/CyclinT1 (Homo sapiens, UniProt P50750).
T1 construct: purchased ProQinase/Reaction Biology, USA 0371-0345-1
As to the kind of experiment: CDK9/T1 ADPGlo kinase assay for inhibitory activity. It is filed as biochemical. The note with it: CDK9/CyclinT1 6 nM, PDKtide 40 microM, ATP 10 microM, 120 min at RT, luminescence readout. As for the experimental part:
The testing compound was evaluated in 12 concentrations in a 1:3 dilution series, starting from 5 microM as the highest concentration.
In a white 384 microplate (Greiner bio-one, Austria #784904,) with 2 microL of 3-fold concentrated CDK9/CyclinT1 (ProQinase/Reaction Biology, USA #0371-0345-1, LOT.: 012), final concentration (f.c.) 6 nM, in 1× kinase buffer, 2 microL of compound (3× fold concentrated in f.c. 1.66% DMSO/H2O) was added and incubated at Room Temperature (RT) for 10 min. Then 2 microL of Substrate/ATP-Mix (3× PDKtide f.c. 40 microM, SignalChem Biotech, Canada via Biozol, Eching, Germany #P10-58, LOT.: L2230-7 and 3× UltraPure ATP f.c. 10 microM (ADP Glo Kinase assay, Promega GmbH, Germany #V9102)) were added, mixed and incubated for 120 min at RT.
After incubation time, 5 microL of ADP Glo reagent (ready to use, ADP Glo Kinase assay, Promega GmbH, Germany #V9102) were added, mixed and incubated for 40 min at RT. In the last step, 10 microL of ADP Glo Detection reagent (ready to use, ADP Glo Kinase assay, Promega GmbH, Germany #V9102) were added, mixed and incubated for 30 min at RT. GloMax Discover GM3000 Reader (Promega GmbH, Germany 9700000249) was used for the readout.
The inhibitor concentration was plotted against the luminescence to determine the IC50 using XLFit 5.5 (IDBS, Guildford) to fit to a sigmoidal dose response curve with a variable slope.
A general note: ADP-Glo turns the ADP formed in a reaction into a luminescent signal.

T1 sequence (P50750 whole entry): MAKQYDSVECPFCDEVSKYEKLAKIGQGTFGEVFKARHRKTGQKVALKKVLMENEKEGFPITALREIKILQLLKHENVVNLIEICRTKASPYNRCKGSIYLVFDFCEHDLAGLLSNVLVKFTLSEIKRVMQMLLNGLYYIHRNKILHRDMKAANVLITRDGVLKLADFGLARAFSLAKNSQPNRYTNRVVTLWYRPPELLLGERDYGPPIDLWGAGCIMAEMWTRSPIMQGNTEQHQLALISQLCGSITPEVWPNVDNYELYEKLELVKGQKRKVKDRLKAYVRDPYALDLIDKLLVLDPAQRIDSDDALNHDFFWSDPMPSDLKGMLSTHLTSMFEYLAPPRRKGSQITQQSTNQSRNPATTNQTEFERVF
T1 sequence (O60563 whole entry partner): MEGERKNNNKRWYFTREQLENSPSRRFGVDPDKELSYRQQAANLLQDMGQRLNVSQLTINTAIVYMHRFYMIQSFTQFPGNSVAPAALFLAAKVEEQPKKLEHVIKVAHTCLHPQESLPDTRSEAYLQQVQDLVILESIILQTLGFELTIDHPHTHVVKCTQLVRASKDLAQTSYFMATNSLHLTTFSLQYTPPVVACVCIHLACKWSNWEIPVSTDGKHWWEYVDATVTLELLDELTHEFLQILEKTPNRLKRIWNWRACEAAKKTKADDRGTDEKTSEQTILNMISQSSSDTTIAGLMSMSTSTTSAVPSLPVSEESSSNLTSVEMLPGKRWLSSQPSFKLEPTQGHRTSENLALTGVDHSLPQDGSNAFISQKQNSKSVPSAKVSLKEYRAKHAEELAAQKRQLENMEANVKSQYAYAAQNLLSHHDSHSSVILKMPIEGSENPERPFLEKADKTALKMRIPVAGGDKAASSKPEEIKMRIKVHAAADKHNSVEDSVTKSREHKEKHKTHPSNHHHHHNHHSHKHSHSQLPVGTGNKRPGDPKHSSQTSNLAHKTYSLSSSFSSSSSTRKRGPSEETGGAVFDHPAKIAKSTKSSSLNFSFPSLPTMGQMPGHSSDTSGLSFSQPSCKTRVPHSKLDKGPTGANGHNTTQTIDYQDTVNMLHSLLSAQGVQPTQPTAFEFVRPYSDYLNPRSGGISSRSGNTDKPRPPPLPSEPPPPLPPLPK

Consider `Fc1cccc(F)c1-c1nc(NCC2CCCNC2)c2ncc(Cl)n2n1` (stereo not shown) [Example #22, 7-chloro-2-(2,6-difluorophenyl)-N-(piperidin-3-ylmethyl)imidazo[2,1-f][1,2,4]triazin-4-amine], for which the IC50 is < 200 nM. On to `Fc1cccc(F)c1-c1nc(NC2CCN(C3CCOCC3)CC2)c2ncc(Cl)n2n1` [Example #11, 7-chloro-2-(2,6-difluorophenyl)-N-(1-(tetrahydro-2H-pyran-4-yl)piperidin-4-yl)imidazo[2,1-f][1,2,4]triazin-4-amine], for which the IC50 is < 200 nM.

For the molecule `NC1CCC(Nc2nc(-c3c(F)cccc3F)nn3c(Cl)cnc23)C1` (stereo not shown) [Example #24, N1-(7-chloro-2-(2,6-difluorophenyl)imidazo[2,1-f][1,2,4]triazin-4-yl)cyclopentane-1,3-diamine], the IC50 was < 20 nM. Consider `CCN1CCCC1CNc1nc(-c2c(F)cccc2F)nn2c(Cl)cnc12` (stereo not shown) [Example #15, 7-chloro-2-(2,6-difluorophenyl)-N-((1-ethylpyrrolidin-2-yl)methyl)imidazo[2,1-f][1,2,4]triazin-4-amine], for which the half-inhibitory concentration (IC50) is < 200 nM. Next, `CN1CCN([C@H]2CC[C@H](Nc3nc(-c4c(F)cccc4F)nn4c(Cl)cnc34)CC2)CC1` [Example #38, 7-chloro-2-(2,6-difluorophenyl)-N-((1r,4r)-4-(4-methylpiperazin-1-yl)cyclohexyl)imidazo[2,1-f][1,2,4]triazin-4-amine]: < 20 nM; `Fc1cccc(F)c1-c1nc(NCc2cccnc2)c2ncc(Cl)n2n1` [Example #36, 7-chloro-2-(2,6-difluorophenyl)-N-(pyridin-3-ylmethyl)imidazo[2,1-f][1,2,4]triazin-4-amine]: < 200 nM. The result for `Fc1cccc(F)c1-c1nc(NCCN2CCOCC2)c2ncc(Cl)n2n1` [Example #19, [7-Chloro-2-(2,6-difluoro-phenyl)-imidazo[2,1-f][1,2,4]triazin-4-yl]-(2-morpholin-4-yl-ethyl)-amine] reads < 200 nM; that for `OCCN[C@H]1CC[C@H](Nc2nc(-c3c(F)cccc3F)nn3c(Cl)cnc23)CC1` [Example #32, 2-(((1r,4r)-4-((7-chloro-2-(2,6-difluorophenyl)imidazo[2,1-f][1,2,4]triazin-4-yl)amino)cyclohexyl)amino)ethan-1-ol], < 20 nM; that for `FCCN[C@H]1CC[C@H](Nc2nc(-c3c(F)cccc3F)nn3c(Cl)cnc23)CC1` [Example #8, (1r,4r)-N1-(7-chloro-2-(2,6-difluorophenyl)imidazo[2,1-f][1,2,4]triazin-4-yl)-N4-(2-fluoroethyl)cyclohexane-1,4-diamine], < 20 nM. Next, `CN(C)[C@H]1CC[C@H](Nc2nc(-c3c(F)cccc3F)nn3c(Cl)cnc23)CC1` [Example #3, (1r,4r)-N1-(7-chloro-2-(2,6-difluorophenyl)imidazo[2,1-f][1,2,4]triazin-4-yl)-N4,N4-dimethylcyclohexane-1,4-diamine]: < 20 nM; `CN1CCC(CNc2nc(-c3c(F)cccc3F)nn3c(Cl)cnc23)CC1` [Example #17, [7-Chloro-2-(2,6-difluoro-phenyl)-imidazo[2,1-f][1,2,4]triazin-4-yl]-(1-methyl-piperidin-4-ylmethyl)-amine]: < 20 nM; `Fc1cccc(F)c1-c1nc(NCC2CCNCC2)c2ncc(Cl)n2n1` [Example #21, 7-chloro-2-(2,6-difluorophenyl)-N-(piperidin-4-ylmethyl)imidazo[2,1-f][1,2,4]triazin-4-amine]: < 200 nM. In the case of `CN1CCCCC1CNc1nc(-c2c(F)cccc2F)nn2c(Cl)cnc12` (stereo not shown) [Example #14, [7-Chloro-2-(2,6-difluoro-phenyl)-imidazo[2,1-f][1,2,4]triazin-4-yl]-(1-methyl-piperidin-2-ylmethyl)-amine], the half-inhibitory concentration (IC50) is < 200 nM. Next, `N[C@H]1CC[C@H](Nc2nc(-c3c(F)cccc3F)nn3c(Cl)cnc23)CC1` [Example #4, (1r,4r)-N1-(7-chloro-2-(2,6-difluorophenyl)imidazo[2,1-f][1,2,4]triazin-4-yl)cyclohexane-1,4-diamine]: < 20 nM; `Fc1cccc(F)c1-c1nc(N[C@H]2CC[C@H](N3CCOCC3)CC2)c2ncc(Cl)n2n1` [Example #1, 7-chloro-2-(2,6-difluorophenyl)-N-((1r,4r)-4-morpholinocyclohexyl)imidazo[2,1-f][1,2,4]triazin-4-amine]: < 20 nM; `CC(C)(C)OC(=O)N1CCCC(CNc2nc(-c3c(F)cccc3F)nn3c(Cl)cnc23)C1` (stereo not shown) [Example #20, tert-butyl 3-(((7-chloro-2-(2,6-difluorophenyl)imidazo[2,1-f][1,2,4]triazin-4-yl)amino)methyl)piperidine-1-carboxylate]: < 200 nM. Next, `Fc1cccc(Cl)c1-c1nc(N[C@H]2CC[C@H](N3CCOCC3)CC2)c2ncc(Cl)n2n1` [Example #27, 7-chloro-2-(2-chloro-6-fluorophenyl)-N-((1r,4r)-4-morpholinocyclohexyl)imidazo[2,1-f][1,2,4]triazin-4-amine]: < 20 nM.

As for `CN1CCC(Nc2nc(-c3c(F)cccc3F)nn3c(Cl)cnc23)CC1` [Example #13, 7-chloro-2-(2,6-difluorophenyl)-N-(1-methylpiperidin-4-yl)imidazo[2,1-f][1,2,4]triazin-4-amine], the IC50 was < 20 nM. The result for `Fc1cccc(F)c1-c1nc(N[C@H]2CC[C@H](N3CCCCC3)CC2)c2ncc(Cl)n2n1` [Example #5, 7-chloro-2-(2,6-difluorophenyl)-N-((1r,4r)-4-(piperidin-1-yl)cyclohexyl)imidazo[2,1-f][1,2,4]triazin-4-amine] reads < 20 nM; that for `Cc1cc(C)c(CNc2nc(-c3c(F)cccc3F)nn3c(Cl)cnc23)cn1` [Example #37, 7-chloro-2-(2,6-difluorophenyl)-N-((4,6-dimethylpyridin-3-yl)methyl)imidazo[2,1-f][1,2,4]triazin-4-amine], < 200 nM; that for `CC(C)N1CCC(Nc2nc(-c3c(F)cccc3F)nn3c(Cl)cnc23)CC1` [Example #10, 7-chloro-2-(2,6-difluorophenyl)-N-(1-isopropylpiperidin-4-yl)imidazo[2,1-f][1,2,4]triazin-4-amine], < 200 nM. In the case of `Fc1cccc(F)c1-c1nc(NC2CCNCC2)c2ncc(Cl)n2n1` [Example #16, [7-Chloro-2-(2,6-difluoro-phenyl)-imidazo[2,1-f][1,2,4]triazin-4-yl]-piperidin-4-yl-amine], the IC50 is < 20 nM.

Regarding `Clc1cccc(Cl)c1-c1nc(N[C@H]2CC[C@H](N3CCOCC3)CC2)c2ncc(Cl)n2n1` [Example #28, 7-chloro-2-(2,6-dichlorophenyl)-N-((1r,4r)-4-morpholinocyclohexyl)imidazo[2,1-f][1,2,4]triazin-4-amine], the concentration for half-maximal inhibition (IC50) was < 20 nM.

Take `FCCCN[C@H]1CC[C@H](Nc2nc(-c3c(F)cccc3F)nn3c(Cl)cnc23)CC1` [Example #9, (1r,4r)-N1-(7-chloro-2-(2,6-difluorophenyl)imidazo[2,1-f][1,2,4]triazin-4-yl)-N4-(3-fluoropropyl)cyclohexane-1,4-diamine]: the half-maximal inhibitory concentration (IC50) is < 20 nM. With `Fc1cccc(F)c1-c1nc(NC2CCN(C3CCCC3)CC2)c2ncc(Cl)n2n1` [Example #12, 7-chloro-N-(1-cyclopentylpiperidin-4-yl)-2-(2,6-difluorophenyl)imidazo[2,1-f][1,2,4]triazin-4-amine], the IC50 is < 200 nM.

As for `Fc1cccc(F)c1-c1nc(NC2CN3CCC2CC3)c2ncc(Cl)n2n1` (stereo not shown) [Example #18, (1-Aza-bicyclo[2.2.2]oct-3-yl)-[7-chloro-2-(2,6-difluoro-phenyl)-imidazo[2,1-f][1,2,4]triazin-4-yl]-amine], the half-maximal inhibitory concentration (IC50) is < 200 nM. The result for `Fc1cccc(F)c1-c1nc(N[C@H]2CC[C@H](N3CCCC3)CC2)c2ncc(Cl)n2n1` [Example #6, 7-chloro-2-(2,6-difluorophenyl)-N-((1r,4r)-4-(pyrrolidin-1-yl)cyclohexyl)imidazo[2,1-f][1,2,4]triazin-4-amine] reads < 20 nM; that for `COCCN[C@H]1CC[C@H](Nc2nc(-c3c(F)cccc3F)nn3c(Cl)cnc23)CC1` [Example #7, (1r,4r)-N1-(7-chloro-2-(2,6-difluorophenyl)imidazo[2,1-f][1,2,4]triazin-4-yl)-N4-(2-methoxyethyl)cyclohexane-1,4-diamine], < 20 nM.
